The source of these data is PubChem BioAssay AID1996.

In brackets after ≈: the same amount, converted by molar mass.

For this series the following is noted: buffer; pH 7.4; 200.0 µM.
In the case of `CN(C)CCNC(=O)Cn1c(=O)c2cccn2c2ccc(F)cc21`, the solubility (kinetic) is more than 49.6 µg/mL.

As for `O=C(NC1CCCC1)c1cc(-c2ccccc2)nc2ccccc12`, the solubility (kinetic) came to 1.4 µg/mL (≈ 4.42 µM).

`O=C(N/N=C/c1ccncc1)C12CC3CC(CC(C3)C1)C2` had a solubility (kinetic) of more than 42.5 µg/mL.

As to `c1ccc(CCNC2=NCCS2)cc1`, the kinetic solubility was more than 30.9 µg/mL.

`CC(C)c1nc(C#N)c(NN)o1` yielded a solubility (kinetic) of more than 24.9 µg/mL.

In turn, `C=CCSc1nc2c(c(=O)[nH]c(=O)n2C)n1Cc1ccccc1` came in with a solubility (kinetic) of 3.9 µg/mL (≈ 11.9 µM).

Molecule `CN(C(=O)CN1C(=O)NC2(CCc3ccccc32)C1=O)C1CCCCC1` (configuration not stated) had a solubility (kinetic) of more than 53.3 µg/mL.

`CS(=O)(=O)c1ccc(NC(=O)CN2C(=O)C3CCCCC3C2=O)cc1` (configuration not stated) had a kinetic solubility of more than 54.7 µg/mL.

Regarding `CCCOc1ccc(N2C(=O)CC(NCC#N)C2=O)cc1` (configuration not stated), the kinetic solubility came to 41 µg/mL (≈ 143 µM).

Regarding `Clc1ccc(C2=CSC3=NCCN23)c(Cl)c1.[Br-]`, the solubility (kinetic) is more than 52.7 µg/mL.

`COc1ccc(OC)c(S(=O)(=O)N2CCc3ccccc3C2)c1`: the kinetic solubility was found to be 22.1 µg/mL (≈ 66.3 µM).

Turning to `Cc1ccc(CCNC(=O)C2CCCN(S(C)(=O)=O)C2)cc1` (configuration not stated), the solubility (kinetic) was more than 48.7 µg/mL.

In the case of `O=C(CSc1nc2ncccc2[nH]1)Nc1ccc2c(c1)OCO2`, the solubility (kinetic) was more than 49.3 µg/mL.

The molecule `CCCN1C(=O)c2ccccc2NC1c1ccc(Cl)cc1` (configuration not stated) came in with a solubility (kinetic) of 3.2 µg/mL (≈ 10.6 µM).

Take `CC(CNC(=O)c1ccc(C#N)cc1)NC(=O)c1ccc(C#N)cc1` (configuration not stated): the kinetic solubility was more than 49.9 µg/mL.

For `CCOc1ccc(N2C(=O)CSC2=NC#N)cc1`, the solubility (kinetic) came out at 38.3 µg/mL (≈ 147 µM).

As for `O=C(NC1CCCC1)c1cc(-c2ccc(F)cc2)on1`, the kinetic solubility is 2.1 µg/mL (≈ 7.66 µM).

In turn, `COc1ccc(/C=C2/C(=O)ON=C2C)cc1Cl` registered a solubility (kinetic) of 23.6 µg/mL (≈ 93.8 µM).

In the case of `CCOC(=O)C1CCN(C(=O)COc2cccc3ccccc23)CC1`, the solubility (kinetic) came out at 43.2 µg/mL (≈ 127 µM).

In turn, `CCCC(=O)Nc1sc2c(c1C(=O)OCC)CC(C)(C)OC2` displayed a kinetic solubility of 4.6 µg/mL (≈ 14.1 µM).

`O/N=C(\CN1CCCCC1)c1ccccc1` registered a solubility (kinetic) of more than 32.7 µg/mL.

For the molecule `O=S(=O)(CCN1CCN(c2ccccn2)CC1)c1ccc(F)cc1`, the solubility (kinetic) was 49 µg/mL (≈ 140 µM).

With `CCC(C)NC(=O)[C@@H]1CSC2c3ccccc3C(=O)N21` (some centres not stated), the kinetic solubility is more than 43.6 µg/mL.

Molecule `COc1ccc(C(=O)NCCCc2ccccc2)cc1OC` showed a kinetic solubility of more than 44.9 µg/mL.

With `COc1nc(C)ccc1-c1noc(-c2cccs2)n1`, the solubility (kinetic) was 2.5 µg/mL (≈ 9.15 µM).

`CC(C)CC(=O)Nc1sc2c(c1C(=O)O)CCCCC2` registered a kinetic solubility of 42 µg/mL (≈ 142 µM).

The molecule `Cl.N=c1ccn(Cc2cccc(F)c2)cc1` gave a kinetic solubility of 30.8 µg/mL.

Molecule `Cc1cccc(CCNC(=O)c2oc3c(C)c(C)ccc3c2C)n1` came in with a solubility (kinetic) of 1.9 µg/mL (≈ 5.89 µM).

`CC1(C)N([O-])C2=C(CCCC2)[N+]1=O` displayed a solubility (kinetic) of more than 27.3 µg/mL.

`COc1ccc(C(=O)Nc2ccncc2)cc1[N+](=O)[O-]` yielded a solubility (kinetic) of 36 µg/mL (≈ 132 µM).

Regarding `N/C(=N\O)c1ccccc1-n1cccc1`, the solubility (kinetic) was more than 30.2 µg/mL.

With `O=C(c1c(Cl)cccc1Cl)N1CCN(c2ncccn2)CC1`, the kinetic solubility is more than 50.6 µg/mL.

`Nc1c(C(=O)N2CCCC2)sc2nc3c(cc12)CCCCCC3`: the solubility (kinetic) came out at 3.2 µg/mL (≈ 9.71 µM).

The molecule `Cc1cc(C(=O)OCC(=O)NC(C)c2ccc(F)cc2)c(C)o1` (configuration not stated) registered a kinetic solubility of 11.4 µg/mL (≈ 35.7 µM).

As to `CN1CCN(C(=O)c2cc3cc(F)ccc3[nH]2)CC1`, the kinetic solubility was more than 39.2 µg/mL.

In the case of `COC(=O)C(C)Oc1ccc(Cl)c(CN2OCC(C)(C)C2=O)c1` (configuration not stated), the kinetic solubility was more than 51.3 µg/mL.

`CCC(NC(=S)NC1CCCCC1)c1ccccc1` (configuration not stated) registered a solubility (kinetic) of 3.8 µg/mL (≈ 13.7 µM).

Turning to `COc1ccccc1NS(=O)(=O)c1ccc2ccccc2c1`, the kinetic solubility was 12.1 µg/mL (≈ 38.6 µM).

As to `Cc1cc(C)cc(NC(=O)CN2C(=O)c3ccccc3C2=O)c1`, the kinetic solubility was found to be 0.5 µg/mL (≈ 1.62 µM).

On to `CCOc1cc(N2CCOCC2)c(OCC)cc1NC(=O)CSc1nnc(N)s1`, for which the kinetic solubility was more than 65.9 µg/mL.

Regarding `COc1cc2c(cc1OC)C(c1ccccc1Br)NC(=O)C2` (configuration not stated), the kinetic solubility is more than 54.3 µg/mL.

`O=C(COC(=O)c1ccc(S(=O)(=O)N2CCCC2)cc1)NCCc1ccc(F)cc1` yielded a kinetic solubility of 6.2 µg/mL (≈ 14.3 µM).

For `Cc1ccc(C2CCN(C(=S)Nc3cccc(Cl)c3)C2)cc1` (configuration not stated), the kinetic solubility was less than 0.4 µg/mL.

The molecule `O=C(CCc1nc2ccccc2s1)OCC(=O)c1ccc[nH]1` registered a solubility (kinetic) of 14.2 µg/mL (≈ 45.2 µM).

`Fc1cccc(NC(=S)N2CCc3ccccc32)c1` returned a solubility (kinetic) of 6.3 µg/mL (≈ 23.1 µM).

Consider `O=C(c1cc2cc(Cl)ccc2oc1=O)N1CCCCCCC1`, for which the kinetic solubility was 7.6 µg/mL (≈ 23.8 µM).

Consider `CC(C)Cn1c(N)c(C(=O)COC(=O)c2cccn2C)c(=O)n(C)c1=O`, for which the kinetic solubility was more than 54.4 µg/mL.

The molecule `Cc1ccc(NS(=O)(=O)c2ccc3c(c2)n(C)c(=O)n3C)cc1` returned a kinetic solubility of 6.3 µg/mL (≈ 19 µM).

In turn, `Cc1ccc(S(=O)(=O)N(C)c2ccc(OC(=O)c3cc(=O)[nH]c4ccccc34)cc2)cc1` gave a solubility (kinetic) of 2.7 µg/mL (≈ 6.02 µM).

In turn, `CCCC(=O)Nc1ccc(-c2csc(-c3cccnc3)n2)cc1` registered a kinetic solubility of 0.7 µg/mL (≈ 2.16 µM).

Regarding `COc1ccc2cc(CCNC(=O)CCc3ccccc3)c(=O)[nH]c2c1`, the kinetic solubility came out at 4.8 µg/mL (≈ 13.7 µM).

The molecule `Cc1nc2ccccc2n1CC(=O)NC1CCCCCC1` yielded a kinetic solubility of more than 42.8 µg/mL.
